Assay results as given in US6489165B2, “Chondrocyte-like cells useful for tissue engineering and methods” (The Regents of the University of California, priority 1997, dated 2002).

What was measured:
[1] = system: Human dermal fibroblasts; test: Cell morphology in high density micromass cultures by microscopy; assay type: cell-based
Method: (§1) Experiments were designed to examine the effects of functional hypoxia and high density culture conditions on the phenotype of dermal fibroblasts. Human dermal fibroblasts obtained from neonatal foreskin samples were cultured in high density micromass cultures. Briefly, a 10 μl drop of a cell solution at a concentration of 2.0×10^4-4.0×10^4 cells/μl was plated in a 24-well polystyrene tissue culture dish. The cultures were incubated for one hour at 37° C., 5% CO2 to allow the cells to adhere to the bottom of the wells and to enhance cell:cell interactions. Following incubation, the cells were flooded with 1 ml of medium (bringing the final concentration to 2.0×10^5 to 4.0×10^5 cells/ml) containing exogenous factors that promote differentiation along the chondrogenic pathway. Cultures were made functionally hypoxic by the addition of lactate (10-40 mM) to the culture medium. The cells were cultured for a period of 24 hours.
Human neonatal foreskin fibroblasts (HFFs) were cultured in high density micromasses (2.0×10^7 cells/ml in 10 μl) and treated with 40 mM lactic acid and 200 nM staurosporine for a period of 24 hours as previously described by Examples 1 and 2. […]

[2] = system: fibroblast micromass cultures; test: Cell viability by direct microscopic observation; assay type: cell-based, human; details: staurosporine alone without lactate priming, at otherwise effective doses
Description: Accordingly, practice of the invention includes treating the cells with the second agent so as to allow a PKA-dependent antagonistic pathway to predominate and to drive chondrogenic differentiation. Suitable chondrogenic differentiation agents include Bisindolylmaleimide I and calphostin C. PKA activators such as dibutyryl cAMP and adenylate cyclase activators (which results in cAMP production and PKA activity) like forskolin may also be effective. A preferred such agent is staurosporine (a protein kinase inhibitor to which PKC is most sensitive), preferably in a range of 150-200 nM.

[3] = system: Human dermal fibroblasts; test: [35S]-sulfate incorporation (normalized to [3H]-thymidine) in micromass cultures; assay type: cell-based
Method: Thus, human dermal fibroblasts were seeded in monolayer or micromass cultures at a density of 2.0×10^5 cell/ml for 24 hours and left untreated or treated with 40 mM lactate to induce hypoxia. Cultures were labeled with [^3H]-thymidine at 2 μCi/ml and Na2^35SO4 at 5 μCi/ml 24 hours prior to harvest. Relative levels of [^35S]-sulfate uptake (ratio of [^35S]-sulfate to [^3H]-thymidine) were determined by liquid scintillation counting of soluble cell extracts using a dual label DPM counting program. […] Human dermal fibroblasts were seeded in high density micromass cultures at a density of 2.0×10^5 cell/ml, treated with lactate at varying concentrations (0-80 mM) for a 24 hour period, and labeled with [^35S]-sulfate.

[4] = system: Human dermal fibroblasts; test: Northern hybridization of total cellular RNA with DIG-labeled probes; assay type: cell-based
Method: Gene Expression. […] The expression of TGF-β1 was also examined in cells cultured under identical conditions. […] Human dermal fibroblasts were cultured in monolayer without or with 40 mM lactate or in micromass cultures without or with 40 mM lactate at a density of 3.0×10^5 cell/ml for 24 hours. Total cellular RNA extracted using the Ultraspec isolation system (Biotecx Laboratories, Inc., Houston, Tex.) and fractionated by formaldehyde-agarose gel electrophoresis was hybridized with DIG-labeled probes to human chondroitin sulfate proteoglycan (aggrecan) core protein and TGF-β1. An equal amount of RNA (5 μg) was loaded in each lane and 28s ribosomal RNA served as an internal control.
Human dermal fibroblasts were cultured in monolayer without or with 40 mM lactate or in micromass cultures without or with 40 mM lactate at a density of 2.0×10^5 cell/ml for 24 hours. Total cellular RNA extracted using the Ultraspec isolation system (Biotecx Laboratories, Inc., Houston, Tex.) and fractionated by formaldehyde-agarose gel electrophoresis was hybridized with a DIG-labeled probe to human type I collagen. An equal amount of RNA (5 μg) was loaded in each lane and 28s ribosomal RNA served as an internal control.
Human dermal fibroblasts were seeded in micromass cultures at a density of 2.0×10^5 cells/ml for 24 hours in the presence of 40 mM lactate and varying concentrations of the protein kinase C inhibitors, staurosporine (0, 50, 100, 150, and 200 nM in lanes 1-5, respectively). Total cellular RNA extracted using the Ultraspec isolation system (Biotecx Laboratories, Inc., Houston, Tex.) and fractionated by formaldehyde-agarose gel electrophoresis was hybridized with DIG-labeled probes to human chondroitin sulfate proteoglycan (aggrecan) core protein and type I collagen. An equal amount RNA (5 μg) was loaded in each lane and 28s ribosomal RNA served as an internal control.
(§2) The production of sulfated proteoglycans was assessed by staining with 1% Alcian blue dye (pH 1.0), while monoclonal antibodies to collagen types I (Rockland, Gilbertsville, Pa.) and II (CIICl, Developmental Studies Hybridoma Bank, Iowa City, Iowa), aggrecan (Chemicon, Temecula, Calif.), and cartilage link protein (9/30/8-A-4, DSHB) were used for immuno-histochemical detection employing the Histostain-Plus king (Zymed, South San Francisco, Calif.) with a DAB substrate for final visualization. The expression of type I collagen and transforming growth factor-β1 (TGF-β1) was detected by northern hybridization. Cell-polymer composites were analyzed by scanning electron microscopy and were embedded in glycol methacrylate, sectioned, and stained with hematoxylin and eosin.

[5] = system: Human dermal fibroblasts; test: Alcian blue staining of sulfated proteoglycan in monolayer or micromass cultures; assay type: cell-based; details: high density micromass, 40 mM lactate, 24 hours, vs untreated and monolayer cultures, P<0.05
Method: as §1
Matrix Deposition. Treated micromass cultures synthesized highly negatively charged sulfated proteoglycan aggregates, as detected using histological and biochemical methods. […] The intensity of Alcian blue staining from guanidine-HCl extracts was measured using a microplate reader at a wavelength of 595 nm.
The expression of type I collagen and transforming growth factor-β1 (TGF-β1) was detected by northern hybridization.

[6] = system: Human dermal fibroblasts; details: 20 mM lactate; cited from earlier work
[7] = system: Human neonatal foreskin fibroblasts (HFFs); test: Immunohistochemical detection of matrix proteins in micromass cultures; assay type: cell-based
Method: Human neonatal foreskin fibroblasts (HFFs) were cultured in high density micromasses (2.0×10^7 cells/ml in 10 μl) and treated with 40 mM lactic acid and 200 nM staurosporine for a period of 24 hours as previously described by Examples 1 and 2. After the initial culture period, the cells were maintained in chemically defined medium consisting of minimum essential medium supplemented with a 1× mixture of Insulin-Transferrin-Selenium (Life Technologies, Gibco BRL, Gaithersburg, Md.), 4.5 g/l glucose, 10 mM β-glycerophosphate, and antibiotics. Dermal fibroblasts isolated from donor tissue were similarly cultured. Additionally, dermal fibroblasts were seeded on three-dimensional polymer scaffolds composed of a non-woven polyglycolic acid (PGA) (Davis and Geck, Danbury, Conn.) mesh reinforced in a dilute solution of 100 kDa poly(L-lactic acid) (PLLA) (Polysciences, Warrington, Pa.).
as §2

[8] = whole mount micromass cultures, after three days
[9] = micromass 2.0×10^5 cell/ml, lactate 0-80 mM, 24 hours
[10] = micromass 3.0×10^5 cell/ml, 40 mM lactate, 24 hours, vs untreated and monolayer

Row | SMILES | visible effect in lactate-treated micromass cultures ([1]; staurosporine about 5-20 nM) | cell viability [2] | sulfate incorporation ([3]; staurosporine alone without lactate priming, at otherwise effective doses) | aggrecan core protein gene expression ([4]; micromass, 40 mM lactate plus 150 nM staurosporine, 24 hours) | aggrecan core protein gene expression ([4]; micromass, 40 mM lactate plus 200 nM staurosporine, 24 hours) | type I collagen gene expression ([4]; micromass, 40 mM lactate plus staurosporine 50-200 nM (all supplemented cultures), 24 hours) | fibroblast outgrowth from the micromass cultures ([1]; 40 mM lactate as compared to 20 mM lactate) | intensity of Alcian blue staining (sulfated proteoglycan content), 595 nm [5] | hyaluronan synthesis [6] | type I collagen immunostaining ([7]; micromass cultures) | aggrecan immunostaining [7, 8] | cartilage link protein immunostaining [7, 8] | relative [35S]-sulfate incorporation (ratio to [3H]-thymidine) ([3]; high density micromass, 40 mM lactate, 24 hours, vs corresponding cultures, P<0.05) | lactate concentration at which sulfate uptake peaks [3, 9] [mM] | sulfate uptake versus lactate concentration [3, 9] | TGF-β1 expression levels ([4]; HFFs on PGA/PLLA discs, all groups) | expression of type I collagen ([4]; HFFs on PGA/PLLA discs, treated vs untreated control) | type I collagen gene expression ([4]; micromass 2.0×10^5 cell/ml, 40 mM lactate, 24 hours) | TGF-β1 gene expression [4, 10] | aggrecan core protein gene expression [4, 10]
1 | CN[C@@H]1C[C@H]2O[C@@](C)([C@@H]1OC)n1c3ccccc3c3c4c(c5c6ccccc6n2c5c31)C(=O)NC4 [staurosporine] | no visible effect | deleterious effect | decreased levels | notable increase | notable increase | marked decrease | – | – | – | – | – | – | – | – | – | – | – | – | – | –
2 | CC(O)C(=O)O (centres unmarked) [lactate] | – | – | – | – | – | – | less fibroblast outgrowth | significantly greater degree of staining | increased | only on the periphery | Minimal staining | Minimal staining | Significantly greater levels | 20 to 40 | dose-dependent increase | remained similar in all groups | greater in untreated control cultures | noticeable decrease | marked increase | marked increase
